From patent US20220170028A1, “NOVEL INTERLEUKIN-2 VARIANTS AND BIFUNCTIONAL FUSION MOLECULES THEREOF” (Cugene Inc, priority 2019, published 2022)
Entries after “also recorded” stand apart in the source; their conditions may differ.

Legend:
Treg cells [1] = experiment: Treg proliferation and expansion in mice after a single subcutaneous injection (Example 9); format: in vivo, mouse; conditions: 0.3 mg/kg single s.c., C57/BL6 mice; for stimulation of Treg cell proliferation and expansion in vivo (in words): days 3, 5, 7
Method: (§1) IL-2 variant Fc fusion proteins were administered to mice and their ability to preferentially proliferate and expand regulatory T cells (CD4+CD25+FoxP3+ T cells) over effector T cells and NK cells were determined in vivo.
(§2) Female C57/BL6 mice (7-week old) were received from Charles River Laboratory and acclimated in house for at least 7 days before the study. Vehicle (PBS), 0.3 mg/kg of each test compounds, or IL-2 benchmark compounds were subcutaneously administered to mice on day 0. Peripheral blood samples were collected into heparin-treated tubes on days 3, 5 and 7 post-treatment. Each group contained 6 mice and baseline blood was collected 2 days prior to the treatment (day −2). After red blood cell lysis, total viable mononuclear blood cells were counted by trypan blue dead cell exclusion method and proceeded to intracellular staining for immune cell phenotype and Ki67 proliferation markers using flow cytometric analysis. Cells were stained separately with two panels of antibodies as listed: 1) anti-mouse Foxp3-FITC, Ki67-PE, anti-mouse CD25-APC and anti-mouse CD4-Percpcy5.5 (1:50 dilution) for CD4+T-regulatory cells (Treg); 2) anti-mouse CD3-FITC, Ki67-PE, anti-mouse CD335-APC and anti-mouse CD8-Percpcy5.5 (1:50 dilution) for CD8+T and NK cells.

[2] = test system: CD4+ Tconv cells, CD8 T cells and NK cells; experiment: Effector T cell and NK cell proliferation and expansion in mice after a single subcutaneous injection (Example 9); format: in vivo, mouse; conditions: 0.3 mg/kg single s.c., C57/BL6 mice
Method: as §1, §2

[3] = Aggregate content by size-exclusion chromatography after Protein A purification; format: physicochemical; conditions: after MabSelectSure
Method: For affinity chromatography each supernatant was loaded on a HiTrap MabSelectSure column (CV=5 mL, GE Healthcare) equilibrated with 25 ml phosphate buffered saline, pH 7.2 (ThermoFisher). Unbound protein was removed by washing with 5 column volumes PBS, pH 7.2 and target protein was eluted with 25 mM sodium citrate, 25 mM sodium chloride, pH 3.2. Protein solution was neutralized by adding 3% of 1 M Tris pH 10.2. Ion exchange chromatography or mix-mode chromatography, including but not limited to CaptoMMC (GE Healthcare), ceramic hydroxyapatite, or ceramic fluoroapatite (Bio-Rad) was also utilized to polish the Protein A material as needed. Target protein was concentrated with an Amicon®Ultra-15 concentrator 10 KDa NMWC (Merck Millipore Ltd.)
The purity and molecular weight of the purified constructs were analyzed by SDS-PAGE with and in the absence of a reducing agent and staining with Coomassie (Imperial® Stain). The NuPAGE® Pre-Cast gel system (4-12% or 8-16% Bis-Tris, ThermoFisher) was used according to the manufacturer's instructions. The protein concentration of purified protein samples was determined by measuring the UV absorbance at 280 nm (Nanodrop Spectrophotometer, ThermoFisher) divided by the molar extinction coefficient calculated on the basis of the amino acid sequence. The aggregate content of the constructs was analyzed on an Agilent 1200 high-performance liquid chromatography (HPLC) system. Samples were injected onto an AdvanceBio size-exclusion column (300 Å, 4.6×150 mm, 2.7 μm, LC column, Agilent) using 150 mM sodium phosphate, pH 7.0 as the mobile phase at 25° C.
(§3) S125I substitution was thus introduced into a number of IL-2 variant Fc fusion molecules. The constructs harboring Ile-125 substitution in IL-2 were expressed using the same vector and in the same culturing conditions as their Ser-125 counterparts and purified using MabSelectSure. The expression level in mg/L and purity assessed by SEC chromatography in aggregation % of exemplary molecules are summarized in Table 6. The two molecules in the same row of Table 6 share the same other amino acid substitution(s) and differ only at residue 125 with either serine or isoleucine. As an example, the SEC chromatogram and SDS-PAGE pictures of P-0447 (SEQ ID NO: 173) and its Ile-125 counterpart P-0511 (SEQ ID NO: 213) were further illustrated in FIGS. 1D and 1E.

[4] = Transient expression level of IL-2 Fc fusion constructs in HEK-293F cells
Method: The constructs were produced by co-transfecting HEK293-F cells growing in suspension with the mammalian expression vectors using polyethylenimine (PEI, 25,000 MW linear, Polysciences). If there were two or more expression vectors, the vectors were transfected in a 1:1 ratio. For transfection, HEK293 cells were cultivated in serum free FreeStyle™ 293 Expression Medium (ThermoFisher). For production in 1000 ml shaking flasks (working volume 330 mL), HEK293 cells were seeded at a density of 0.8×10^6 cells/ml 24 hours before transfection. A total of 330 μg of DNA expression vectors were mixed with 16.7 ml Opti-mem Medium (ThermoFisher). After addition of 0.33 mg PEI diluted in 16.7 ml Opti-mem Medium, the mixture was vortexed for 15 sec and subsequently incubated for 10 min at room temperature. The DNA/PEI solution was then added to the cells and incubated at 37° C. in an incubator with 8% CO2. Sodium butyrate (Millipore Sigma) was added to the cells at day 4 at a final concentration of […] to help sustain protein expression. After 6 days cultivation, supernatant was collected for purification by centrifugation for 20 min at 2200 rpm. The solution was sterile filtered (0.22 μm filter, Corning). The secreted protein was purified from cell culture supernatants using Protein A affinity chromatography.
as §3

[5] = test system: STAT5 phosphorylation in CD4+ Treg cells; experiment: STAT5 phosphorylation in CD4+ Treg cells, human PBMC assay by FACS; format: cell-based
From the text: (§4) Single amino acid substitutions were introduced to IL-2 at positions corresponding to amino acids interacting with receptor subunit(s) β or γ or βγ. These substitutions were aimed to reduce IL-2 signaling capacity through the intermediate affinity IL-2Rβγ complex and confer signaling specificity from the high affinity IL-2Rαβγ. IL-2 variants containing single amino acid substitutions were examined for their ability to differentially stimulate STAT5 phosphorylation in CD4 positive Treg and Tconv cells. STAT5 is known to be involved in the downstream signaling cascade upon IL-2 binding to the transmembrane IL-2 receptors. The phosphorylation of STAT5 in defined lymphocyte subpopulations was measured using fresh human peripheral blood mononuclear cells (PBMC) and the forkhead transcription factor FOXP3 was used to identify the Treg population in FACS analysis.
(§5) Briefly, human PBMC were isolated by Ficoll-Hypaque centrifugation from the buffy coat of a healthy donor. PBMC were starved in serum-free MACS buffer at 4° C. for 1 hour. 2×10^5 PBMC were then treated with serial dilutions of test compounds for 30 min at 37° C. Cells were fixed and permeabilized with Foxp3/Transcription Factor Staining Buffer Set (EBIO) by incubating with 1× Foxp3 fixation/permeabilization working solution for 30 minutes and washing with 1× permeabilization buffer. Cells were additionally fixed with Cytofix buffer and permeabilized with Perm Buffer III (BD Biosciences) and then washed. After blocking Fc receptors by adding human TruStain FcX (1:50 dilution), cells were stained with a mixture of anti-CD25-PE, anti-FOXP3-APC, anti-pSTAT5-FITC, and anti-CD4-PerCP-Cy5.5 antibodies at concentrations recommended by the manufacturer for 45 minutes at room temperature. Cells were collected by centrifugation, washed, resuspended in FACS buffer, and analyzed by flow cytometry. The flow cytometry data was gated into CD4+/Foxp3+/CD25^high and CD4+/Foxp3−/CD25^low groups for the Treg and CD4 conventional T cell subsets, respectively. Data are expressed as a percent of pStat5 positive cells in gated population.

[6] = test system: CD4+ Treg vs CD4+ Tconv cells; experiment: STAT5 phosphorylation, selectivity / activity profile Treg versus CD4+ Tconv cells, human PBMC; format: cell-based
From the text: as §4, §5
The S125I substitution was then introduced into wild-type IL-2 or IL-2 variants that already harbored 1 or 2 mutations targeting receptor subunit(s) β or γ or βγ. The resulting IL-2 variants containing isoleucine at position 125 were tested for their ability to stimulate STAT5 phosphorylation in Treg and Tconv cells in comparison with their respective serine counterparts at position 125. Table 7 lists the potency and selectivity of IL-2 variants in Treg cells. The two molecules in the same row of Table 7 share the same other amino acid substitution(s) and differ only at position 125 with either serine or isoleucine.

Treg cells [7] = experiment: Treg pharmacodynamics in mice after repeated administration Q3D (Example 11); format: in vivo, mouse; conditions: after three consecutive Q3D treatments, 0.3 mg/kg s.c.
Method: Female Balb/C mice (7-week old) were acclimated in house for 5-7 days before the study. Vehicle (PBS), 0.3 mg/kg of P-0511, P-0512, P-0531, or Benchmark-1 compound were subcutaneously administered to mice (n=5/group) on days 0, 3, and 6. On days 3 and 9, three days after the first injection and multiple (3) injections, respectively, peripheral blood was collected. Based on earlier in vivo experiments, Treg cell activation, proliferation, and expansion were expected to peak on day 3, and thus three days post injection was selected for data collection and analysis. Changes in blood lymphocyte activation, proliferation, and expansion were measured by flow cytometry. P-0531 is the S125I equivalent of the wild type IL-2 fusion protein. The Benchmark-1 contains V91K mutation.

[8] = test system: STAT5 phosphorylation in CD4+ Tconv cells; experiment: STAT5 phosphorylation in CD4+ Tconv cells, human PBMC assay by FACS; format: cell-based
From the text: as §4, §5

[9] = test system: KLH-induced DTH in Balb/C mice; experiment: KLH-induced delayed-type hypersensitivity (DTH) mouse model, ear thickness; format: in vivo; conditions: 72 hours after KLH challenge, 4 consecutive daily dosing at 5 mg/kg i.p.
Method: The ability of Treg cells induced by IL-2 variants to suppress T cell antigen-driven inflammation in vivo was assessed in a model of delayed-type hypersensitivity (DTH). Female Balb/C mice (7-week old) were acclimated in house for 7 days and randomized into groups. Subcutaneous administration of vehicle (PBS), P-0511 at either 0.1 mg/kg or 0.3 mg/kg was initiated on day −2 and was given either once every 3 days (Q3D) for three injections or once every 5 days (Q5D) for two injections. Mice were then sensitized with a subcutaneous administration of 100 μg keyhole limpet hemocyanin (KLH) in 200 μl saline on day 0. For Q3D dosing, two more subcutaneous injections of PBS or P-0511 (0.1 or 0.3 mg/kg) were administered on days 1, and 4; for Q5D dosing, one additional s.c. injection of PBS, 0.1 or 0.3 mg/kg P-0511 was administered on day 3. Mice received an intradermal challenge of KLH (5 μg in 10 μl saline) in right ear on day 5. Right ear thickness was measured using a caliper on day 5 prior KLH challenge and daily from day 6 to day 9 corresponding to 24 h, 48 h, 72 h and 96 h post KLH challenge. One group of mice also received 5 mg/kg daily i.p. treatment of dexamethasone from day 5 to day 8 as a positive control.
Kinetics of the DTH response using the change in ear thickness relative to baseline values (Δ ear thickness) at various times after KLH challenge was illustrated in FIG. 23.

Molecule: Benchmark-3: benchmark Fc-IL-2 variant fusion protein containing N88D, SEQ ID NO: 199 [reference compound]
- stimulation of Treg cell proliferation and expansion in vivo (in words) (Treg cells [1]): not efficacious
- Ki67 stimulation on CD8 T cells and NK cells in vivo (in words) [2]: low effects

Molecule: P-0531: IL-2 S125I Fc fusion, S125I equivalent of wild type, SEQ ID NO: 167
- Aggregation % (SEC) ([3]; Isoleucine-125 constructs): 0.7%
- Expression ([4]; Isoleucine-125 constructs): 29.5 mg/L
- STAT5 phosphorylation activity in Treg cells (in words) [5]: slightly increased potency
- activity profile / selectivity window Treg over CD4+ Tconv (in words) [6]: without altering Treg selectivity
- Treg Selectivity ([6]; Isoleucine-125 constructs): Yes
- % Treg over total CD4 T cells or over total lymphocytes (Treg cells [7]): declined drastically to near control levels

Molecule: P-0514: IL-2 L19Q/S125I/Q126E Fc fusion, SEQ ID NO: 216
- Treg/Tconv ratio (Ki67 stimulation and cell counts) (Treg cells [1]; all measured time points): most beneficial Treg/Tconv ratio
- stimulation of Treg cell proliferation and expansion in vivo (in words) (Treg cells [1]): stronger in vivo efficacy
- expansion of CD4+ Tconv cells, CD8 T cells or NK cells in vivo [2]: No significant expansion

Molecule: P-0419: IL-2 L19Y/Q126E Fc fusion, SEQ ID NO: 105
- Aggregation % (SEC) ([3]; Serine-125 constructs): 33.8%
- Expression ([4]; Serine-125 constructs): 6.7 mg/L
- STAT5 phosphorylation activity in Treg cells (in words) [5]: mainly reserved; also recorded: retained comparable potency; also recorded: significant potency
- STAT5 phosphorylation activity in CD4+ Tconv cells (in words) [8]: varied significantly; also recorded: largely abolished
- activity profile / selectivity window Treg over CD4+ Tconv (in words) [6]: significantly widened; also recorded: very comparable to that of the Benchmark-1 molecule; also recorded: comparable activity profile to Benchmark-1
- Treg Selectivity ([6]; Serine-125 constructs): Yes

Molecule: C[C@@H]1C[C@H]2[C@@H]3CCC4=CC(=O)C=C[C@]4(C)[C@@]3(F)[C@@H](O)C[C@]2(C)[C@@]1(O)C(=O)CO [dexamethasone, reference compound]
- inhibition of KLH-induced inflammatory response [9]: ~85%
